Data as given in US8975223B2, “Methods for treating metabolic disorders and obesity with a peptide comprising the amino acid sequence of SEQ ID No. 146” (Marcadia Biotech, Inc., priority 2010, dated 2015).
“Also recorded” adds a separate entry of the source. Where no end group is shown, it is not given here. [ ]: non-standard residue; d: D form. Aib = CC(C)(N)C(=O)O

Tests used:
Format in all cases: in vivo, human
[1] = Phase I single-ascending dose study, safety, tolerability, PK and PD, single SC injection; conditions: for mean daily fasting glucose level by day 7: healthy subjects (placebo 78.7)
Method: A Phase I, randomized, placebo-controlled, sequential, single-ascending, two period, study was performed in healthy male subjects to evaluate the safety, tolerability, pharmacokinetic (PK), and pharmacodynamic (PD) properties of extended half-life GLP-1/GIP coagonist peptide. Healthy adult male subjects (about 18 to 55 years of age) who were in general good health based on medical history, physical examination, ECG, and routine laboratory tests (e.g., blood, chemistry, hematology, urinalysis, and drug screen) with a body mass index between 20 kg/m^2 and 30 kg/m^2 were selected for the study. The extended half-life GLP-1/GIP coagonist peptide tested in all of the Examples was SEQ ID NO: 153.
The subjects were randomized into cohorts.
Following an overnight fast of at least 10 hours, the subjects received a single dose of the study drug or placebo as a subcutaneous (SC) injection in the abdomen. Blood samples were collected for fasting insulin, glucose, and glucagon levels pre-dose (i.e., within 30 minutes prior to dosing) on Day 1 and on Days 2, 3, 4, 5, 6, and 7. Plasma samples for pharmacokinetic analysis were collected pre-dose and at 0.5, 1, 2, 4, 8, and 12 hours post-dose on Day 1 and on Days 2, 3, 4, 5, 6, 7, 14, 28, and 35. The subjects were monitored through Day 35 for adverse events, weight, and vital signs.

[2] = tested on: beta cell response to a glucose load; assay: Phase I two-part study, beta cell response to graded glucose infusion; conditions: for LS mean change in insulin secretion rate at each glucose infusion rate, placebo vs treatment: 72 hours after dosing, p<0.001
Method: (§1) A Phase I, randomized, placebo-controlled, positive-controlled two-part study was performed in healthy male and female subjects to evaluate the effect of a range of doses on beta cell response to a glucose load and to assess the effect of these doses on gastric emptying. Beta cell function was assessed by calculation of prehepatic insulin secretion in response to a graded glucose infusion. Gastric emptying was assessed by measurement of plasma appearance of ingested acetaminophen.
(§2) During Part 2, subjects in Cohort 2 received placebo on Day 1, followed by 8 mg of the extended half-life GLP-1/GIP coagonist peptide on Day 2. Subjects in Cohort 3 received placebo on Day 1, followed by 4 mg of the extended half-life GLP-1/GIP coagonist peptide on Day 2. Subjects in Cohort 4 received placebo on Day 1, followed by 16 mg of the extended half-life GLP-1/GIP coagonist peptide on Day 2.
(§3) Blood samples for glucose, C-peptide, insulin, and safety laboratory tests were drawn at −120, −15, and −10 minutes. At −10 minutes, subjects ingested 1000 mg acetaminophen elixir with 240 mL water. At 0 minutes, a step-wise infusion of glucose (20% dextrose) was started, a second SC injection of placebo was administered, and blood samples for glucose, C-peptide, insulin, and safety laboratory tests were drawn. Glucose was infused for a total of 2.5 hours at a rate of 2, 4, 6, 8, and 12 mg/kg/min. Each level of glucose infusion was maintained for 30 minutes. Blood samples for glucose, C-peptide, and insulin were drawn again at 10, 20, and 30 minutes during each 30-minute infusion period. Blood samples for plasma acetaminophen concentration were drawn at −10, 30, 60, 90, 120, 150, 180, 210, 240, 300, and 480 minutes.
(§4) Blood samples for glucose, C-peptide, and insulin were drawn at −120, −15, and −10 minutes. At −10 minutes, subjects ingested 1000 mg acetaminophen elixir with 240 mL water. […] Glucose was infused for a total of 2.5 hours at a rate of 2, 4, 6, 8, and 12 mg/kg/min. Each level of glucose infusion was maintained for 30 minutes. […] Blood samples for glucose, C-peptide, and insulin were drawn at 10, 20, and 30 minutes during each 30-minute infusion period. Blood samples for plasma acetaminophen concentration were drawn at −10, 30, 60, 90, 120, 150, 180, 210, 240, 300, and 480 minutes.
(§5) Blood samples for glucose, C-peptide, insulin, and safety laboratory tests were drawn at −15 and −10 minutes. At −10 minutes, subjects ingested 1000 mg acetaminophen elixir with 240 mL water. At 0 minutes, a step-wise infusion of glucose (20% dextrose) was started and blood samples for glucose, C-peptide, and insulin were drawn. Glucose was infused for a total of 2.5 hours at a rate of 2, 4, 6, 8, and 12 mg/kg/min. Each level of glucose infusion was maintained for 30 minutes. Blood samples for glucose, C-peptide, and insulin were drawn again at 10, 20, and 30 minutes during each 30-minute infusion period. Blood samples for plasma acetaminophen concentration were drawn at −10, 30, 60, 90, 120, 150, 180, 210, 240, 300, and 480 minutes.
On Day 2, following an overnight fast of 10 hours, a blood sample for glucose, C-peptide, and insulin was drawn at −10 minutes. Subjects received an injection of extended half-life GLP-1/GIP coagonist peptide at 0 minutes. Subjects in Cohort 2 received 8 mg of extended half-life GLP-1/GIP coagonist peptide, subjects in Cohort 3 received 4 mg of extended half-life GLP-1/GIP coagonist peptide, and subjects in Cohort 4 received 16 mg of extended half-life GLP-1/GIP coagonist peptide. At 0 minutes, a blood sample for extended half-life GLP-1/GIP coagonist peptide concentration, C-peptide, insulin, glucose, and safety laboratory tests was drawn.
At −10 minutes, subjects ingested 1000 mg acetaminophen elixir with 240 mL water. […] Glucose was infused for a total of 2.5 hours at a rate of 2, 4, 6, 8, and 12 mg/kg/min. Each level of glucose infusion was maintained for 30 minutes.

gastric emptying = assay: Phase I two-part study, gastric emptying by plasma appearance of ingested acetaminophen
Method: as §1, §2, §3, §4, §5
At −10 minutes, subjects ingested 1000 mg acetaminophen elixir with 240 mL water. […] Glucose was infused for a total of 2.5 hours at a rate of 2, 4, 6, 8, and 12 mg/kg/min. Each level of glucose infusion was maintained for 30 minutes. […] Blood samples for plasma acetaminophen concentration were drawn at −10, 30, 60, 90, 120, 150, 180, 210, 240, 300, and 480 minutes.

[3] = 4 mg, 8 mg, 16 mg, graded glucose infusion
[4] = 4 mg, 8 mg, 16 mg, 72 hours after dosing

extended half-life GLP-1/GIP coagonist peptide: The extended half-life GLP-1/GIP coagonist peptide tested in all of the Examples was SEQ ID NO: 153 (Y[Aib]EGTFTSDYSIYLDKQAA[Aib]EFVC(PEG 40 kDa)WLLAGGPSSGAPPPSK-NH2)
AUC (AUC0-144) ([1]; 0.1 mg single SC dose, plasma): 12,349 pM·hr | Cmax ([1]; 0.1 mg single SC dose, plasma): 0.183 nM | AUC (AUC0-144) ([1]; 8 mg single SC dose, plasma): 1,382,376 pM·hr | Cmax ([1]; 8 mg single SC dose, plasma): 13 nM | mean daily fasting glucose level by day 7 ([1]; 16 mg dose): 76.5 mg/dL | time to maximum observed plasma concentration (Tmax) ([1]; 16 mg single SC dose): 112.5 h | mean daily fasting glucose level by day 7 ([1]; 24 mg dose): 72.7 mg/dL | time to maximum observed plasma concentration (Tmax) ([1]; 24 mg single SC dose): 56.0 h | mean daily fasting glucose level by day 7 ([1]; 32 mg dose): 71.7 mg/dL | time to maximum observed plasma concentration (Tmax) ([1]; 32 mg single SC dose): 80.0 h | AUC (AUC0-last) ([1]; 32 mg single SC dose, plasma): 12,582 nM·hr | Cmax ([1]; 32 mg single SC dose, plasma): 54.8 nM | absolute bioavailability ([1]; SC injection): 100% | dose proportionality of AUC and Cmax ([1]; doses ranging from 0.1 mg to 32 mg): dose proportional | dose-related trends for fasting insulin, glucose and glucagon levels ([1]; healthy subjects): No dose-related trends | apparent t1/2 ([1]; plasma, single SC dose, healthy male subjects): approximately 5 days | safety and tolerability ([1]; single SC doses 0.1 mg to 32 mg, healthy male subjects): generally safe and well tolerated; also recorded: well tolerated and not associated with adverse events, clinically important laboratory findings, or ECG findings | LS mean change in C peptide, comparison between dose groups ([2]; 4 mg vs 8 mg groups, p=0.0055): 0.01 ng/mL per mg/dL | LS mean change in insulin secretion rate, comparison between dose groups ([2]; 4 mg vs 8 mg groups, p=0.0067): 0.01 μIU/mL per mg/dL | LS mean change in insulin, comparison between dose groups ([2]; 4 mg vs 8 mg groups, p=0.0251): 0.09 μIU/mL per mg/dL | LS mean change in C peptide, comparison between dose groups ([2]; 4 mg vs 16 mg groups, p<0.0001): 0.03 ng/mL per mg/dL | LS mean change in insulin secretion rate, comparison between dose groups ([2]; 4 mg vs 16 mg groups, p<0.0001): 0.04 μIU/mL per mg/dL | LS mean change in insulin, comparison between dose groups ([2]; 4 mg vs 16 mg groups, p<0.0001): 0.17 μIU/mL per mg/dL | C-peptide level in comparison to placebo [2, 3]: dose dependent, dose proportional, increase | insulin secretion rate (ISR) in comparison to placebo [2, 3]: dose dependent, dose proportional, increase | LS mean change in insulin secretion rate at each glucose infusion rate, placebo vs treatment ([2]; 4 mg): 0.03 μIU/mL | LS mean change in C peptide at each glucose infusion rate, placebo vs treatment ([2]; 4 mg, p<0.0001): 0.02 ng/mL per mg/dL | LS mean change in insulin at each glucose infusion rate, placebo vs treatment ([2]; 4 mg, p<0.0001): 0.27 μIU/mL per mg/dL | LS mean change in C peptide, comparison between dose groups ([2]; 8 mg vs 16 mg groups, p<0.0001): 0.02 ng/mL per mg/dL | LS mean change in insulin secretion rate, comparison between dose groups ([2]; 8 mg vs 16 mg groups, p<0.0001): 0.03 μIU/mL per mg/dL | LS mean change in insulin, comparison between dose groups ([2]; 8 mg vs 16 mg groups, p=0.0316): 0.08 μIU/mL per mg/dL | LS mean change in insulin secretion rate at each glucose infusion rate, placebo vs treatment ([2]; 8 mg): 0.04 μIU/mL | LS mean change in C peptide at each glucose infusion rate, placebo vs treatment ([2]; 8 mg, p<0.0001): 0.03 ng/mL per mg/dL | LS mean change in insulin at each glucose infusion rate, placebo vs treatment ([2]; 8 mg, p<0.0001): 0.35 μIU/mL per mg/dL | increase in insulin secretion rate ([2]; 16 mg (maximum dose), vs placebo, p=0.001): approximately 44% | change in glucose levels between the 8 mg/kg/min and 12 mg/kg/min infusion rates ([2]; 16 mg and 8 mg groups): no increases in glucose levels | LS mean change in insulin secretion rate at each glucose infusion rate, placebo vs treatment ([2]; 16 mg): 0.07 μIU/mL | LS mean change in C peptide at each glucose infusion rate, placebo vs treatment ([2]; 16 mg, p<0.0001): 0.05 ng/mL per mg/dL | LS mean change in insulin at each glucose infusion rate, placebo vs treatment ([2]; 16 mg, p<0.0001): 0.43 μIU/mL per mg/dL | glucose levels compared to placebo group ([2]; all dose groups, all glucose infusion rates): lower glucose levels than the placebo group | Cmax of plasma acetaminophen (gastric emptying; [4]): trend toward lower Cmax at a higher dose | Tmax of plasma acetaminophen compared to placebo (gastric emptying; [4]): not significantly different from placebo | total acetaminophen absorbed (AUC0-4 hr) compared to placebo (gastric emptying; [4]): not significantly different from placebo | delay in the absorption of acetaminophen (gastric emptying; 4 mg, 8 mg, 16 mg, 72 hours after dosing, 1000 mg acetaminophen): not associated with a significant delay | effect on gastric emptying (gastric emptying; doses that increase insulin secretion in response to a glucose infusion): does not delay gastric emptying
